From patent US6737383B1, “Herbicidal oxadiazolidines” (priority 1999, dated 2004)

Columns and labels:
rape = assay: Test B pre/postemergence rape; format: in vivo, Brassica napus
In short: (§1)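 Herbicidal effect was estimated by eye on a ten-point control scale after plants spent twelve to sixteen days in a greenhouse following soil or foliar treatment. Foliar sprays targeted plants at one to four leaves; all doses were formulated in a non-phytotoxic solvent with surfactant.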

corn = assay: Test B pre/postemergence corn; format: in vivo, Zea mays
In short: as §1

velvetleaf = assay: Test B pre/postemergence velvetleaf; format: in vivo, Abutilon theophrasti
In short: as §1

surinam grass = assay: Test B pre/postemergence surinam grass; format: in vivo, Brachiaria decumbens
In short: as §1

purple nutsedge = assay: Test B pre/postemergence purple nutsedge; format: in vivo, Cyperus rotundus; conditions: Rate 62 g/ha
In short: as §1

crabgrass = assay: Test B pre/postemergence crabgrass; format: in vivo, Digitaria sanguinalis
In short: as §1

pigweed = assay: Test B pre/postemergence pigweed; format: in vivo, Amaranthus retroflexus
In short: as §1

wild oat = assay: Test B pre/postemergence wild oat; format: in vivo, Avena fatua
In short: as §1

morningglory = assay: Test B pre/postemergence morningglory; format: in vivo, Ipomoea hederacea
In short: as §1

sugar beet = assay: Test B pre/postemergence sugar beet; format: in vivo, Beta vulgaris
In short: as §1

blackgrass = assay: Test B pre/postemergence blackgrass; format: in vivo, Alopecurus myosuroides
In short: as §1

cocklebur = assay: Test B pre/postemergence cocklebur; format: in vivo, Xanthium strumarium
In short: as §1

wheat = assay: Test B pre/postemergence wheat; format: in vivo, Triticum aestivum
In short: as §1

giant foxtail = assay: Test B pre/postemergence giant foxtail; format: in vivo, Setaria faberii
In short: as §1

soybean = assay: Test B pre/postemergence soybean; format: in vivo, Glycine max
In short: as §1

bedstraw = assay: Test B pre/postemergence bedstraw; format: in vivo, Galium aparine
In short: as §1

[1] = Postemergence, Rate 62 g/ha, scale of 0 to 10, 0 is no effect, 10 is complete control
[2] = Postemergence, Rate 125 g/ha, scale 0 to 10, 0 is no effect, 10 is complete control
[3] = Postemergence, Rate 500 g/ha, scale 0 to 10, 0 is no effect, 10 is complete control
[4] = Preemergence, Rate 62 g/ha, scale of 0 to 10 where 0 is no effect and 10 is complete control
[5] = Preemergence, Rate 125 g/ha, scale 0 to 10, 0 is no effect, 10 is complete control
[6] = Preemergence, Rate 500 g/ha, scale of 0 to 10 where 0 is no effect and 10 is complete control
[7] = Postemergence, Rate 250 g/ha, scale 0 to 10
[8] = Preemergence, Rate 250 g/ha, scale 0 to 10, 0 is no effect, 10 is complete control
[9] = Preemergence, Rate 500 g/ha, scale 0 to 10, 0 is no effect, 10 is complete control

## CCN(CC)C(=O)Cn1c(=O)on(C(=O)N(c2ccc(F)cc2F)C(C)C)c1=O [Compound 512]
rape; [1]
  Rape plant response rating: 0
rape; [2]
  Rape plant response rating: 0
rape; [3]
  Plant response rating, Rape: 0
rape; [4]
  Plant response rating, Rape: 0
rape; [5]
  Rape plant response rating: 0
rape; [6]
  Rape plant response rating: 5
corn; [1]
  Corn plant response rating: 0
corn; [2]
  Corn plant response rating: 0
corn; [7]
  Corn plant response rating: 0
corn; [3]
  Plant response rating, Corn: 0
corn; [4]
  Plant response rating, Corn: 0
corn; [5]
  Corn plant response rating: 0
corn; [6]
  Corn plant response rating: 3
velvetleaf; [1]
  Velvetleaf plant response rating: 0
velvetleaf; [2]
  Velvetleaf plant response rating: 0
velvetleaf; [3]
  Plant response rating, Velvetleaf: 1
velvetleaf; [4]
  Plant response rating, Velvetleaf: 0
velvetleaf; [5]
  Velvetleaf plant response rating: 0
velvetleaf; [6]
  Velvetleaf plant response rating: 0
Surinam grass; [1]
  B. signalgrass plant response rating: 0
Surinam grass; [2]
  B. signalgrass plant response rating: 1
Surinam grass; Postemergence, Rate 250 g/ha, scale 0 to 10, 0 no effect, 10 complete control
  B. signalgrass plant response rating: 4
Surinam grass; [3]
  Plant response rating, B. signalgrass: 5
Surinam grass; [4]
  Plant response rating, B. signalgrass: 3
Surinam grass; [5]
  B. signalgrass plant response rating: 8
Surinam grass; [8]
  B. signalgrass plant response rating: 10
Surinam grass; [9]
  B. signalgrass plant response rating: 10
Purple nutsedge; Postemergence, scale of 0 to 10, 0 is no effect, 10 is complete control
  Nutsedge plant response rating: 0
Purple nutsedge; Preemergence, scale of 0 to 10 where 0 is no effect and 10 is complete control
  Plant response rating, Nutsedge: 0
crabgrass; [1]
  Crabgrass plant response rating: 2
crabgrass; [2]
  Crabgrass plant response rating: 2
crabgrass; [7]
  Crabgrass plant response rating: 5
crabgrass; [3]
  Plant response rating, Crabgrass: 9
crabgrass; [4]
  Plant response rating, Crabgrass: 3
crabgrass; [5]
  Crabgrass plant response rating: 7
crabgrass; [6]
  Crabgrass plant response rating: 9
pigweed; [1]
  Redroot pigweed plant response rating: 1
pigweed; [2]
  Redroot pigweed plant response rating: 7
pigweed; [3]
  Plant response rating, Redroot pigweed: 9
pigweed; [4]
  Plant response rating, Redroot pigweed: 3
pigweed; [5]
  Redroot pigweed plant response rating: 9
pigweed; [6]
  Redroot pigweed plant response rating: 10
Wild oat; [1]
  Wild oats plant response rating: 0
Wild oat; [2]
  Wild oats plant response rating: 0
Wild oat; [3]
  Plant response rating, Wild oats: 1
Wild oat; [4]
  Plant response rating, Wild oats: 2
Wild oat; [5]
  Wild oats plant response rating: 2
Wild oat; [6]
  Wild oats plant response rating: 10
morningglory; [1]
  Morningglory plant response rating: 5
morningglory; [2]
  Morningglory plant response rating: 5
morningglory; [3]
  Plant response rating, Morningglory: 7
morningglory; [4]
  Plant response rating, Morningglory: 0
morningglory; [5]
  Morningglory plant response rating: 0
morningglory; [6]
  Morningglory plant response rating: 0
Sugar beet; [1]
  Sugarbeets plant response rating: 0
Sugar beet; [2]
  Sugarbeets plant response rating: 0
Sugar beet; [3]
  Plant response rating, Sugarbeets: 7
Sugar beet; [4]
  Plant response rating, Sugarbeets: 0
Sugar beet; [5]
  Sugarbeets plant response rating: 0
Sugar beet; [6]
  Sugarbeets plant response rating: 5
blackgrass; [1]
  Blackgrass plant response rating: 2
blackgrass; [2]
  Blackgrass plant response rating: 3
blackgrass; [7]
  Blackgrass plant response rating: 6
blackgrass; [3]
  Plant response rating, Blackgrass: 6
blackgrass; [4]
  Plant response rating, Blackgrass: 0
blackgrass; [5]
  Blackgrass plant response rating: 2
blackgrass; [8]
  Blackgrass plant response rating: 9
blackgrass; [6]
  Blackgrass plant response rating: 10
cocklebur; [1]
  Cocklebur plant response rating: 0
cocklebur; [2]
  Cocklebur plant response rating: 2
cocklebur; [7]
  Cocklebur plant response rating: 3
cocklebur; [3]
  Plant response rating, Cocklebur: 7
cocklebur; [4]
  Plant response rating, Cocklebur: 0
cocklebur; [5]
  Cocklebur plant response rating: 0
cocklebur; [8]
  Cocklebur plant response rating: 0
cocklebur; [6]
  Cocklebur plant response rating: 0
wheat; [1]
  Wheat plant response rating: 0
wheat; [2]
  Wheat plant response rating: 0
wheat; [3]
  Plant response rating, Wheat: 2
wheat; [4]
  Plant response rating, Wheat: 0
wheat; [5]
  Wheat plant response rating: 2
wheat; [6]
  Wheat plant response rating: 6
Giant foxtail; [1]
  Giant foxtail plant response rating: 2
Giant foxtail; [2]
  Giant foxtail plant response rating: 3
Giant foxtail; [3]
  Plant response rating, Giant foxtail: 8
Giant foxtail; [4]
  Plant response rating, Giant foxtail: 5
Giant foxtail; [5]
  Giant foxtail plant response rating: 9
Giant foxtail; [6]
  Giant foxtail plant response rating: 10
soybean; [1]
  Soybean plant response rating: 4
soybean; [2]
  Soybean plant response rating: 4
soybean; [3]
  Plant response rating, Soybean: 7
soybean; [4]
  Plant response rating, Soybean: 0
soybean; [5]
  Soybean plant response rating: 0
soybean; [6]
  Soybean plant response rating: 0
bedstraw; [7]
  Bedstraw plant response rating: 7
bedstraw; [4]
  Plant response rating, Bedstraw: 0
bedstraw; [5]
  Bedstraw plant response rating: 0
bedstraw; [8]
  Bedstraw plant response rating: 0
bedstraw; [9]
  Bedstraw plant response rating: 3
